Here are results for 8 molecules from PMC2848589, “Raltegravir Is a Potent Inhibitor of XMRV, a Virus Implicated in Prostate Cancer and Chronic Fatigue Syndrome” (PLoS ONE, 2010).

Counter-ions that a name gives are not always drawn.

The test system of one series is MCF-7 cells. Nature of the series: Cytotoxicity in MCF-7 cells (MTT / CellTiter 96 AQueous One). Format: cell-based, human. As to the method: (§1) We tested a total of 45 compounds belonging to different classes of HIV-1 inhibitors, and a few inhibitors of viruses other than retroviruses, for their ability to inhibit XMRV replication in cultured cells. LNCaP and MCF-7 cells were chosen for their ability to support robust in vitro replication of XMRV. […] To determine if a reduction in viral release might be due to toxicity of the compound and not due to specific antiretroviral activity, cellular morphology was monitored every 24 h by microscopic examination, and an MTT [3-(4,5-dimethylthiazol-2-yl)-2,5-diphenyltetrazolium bromide] colorimetric assay was used to measure potential cytotoxicity produced by the compounds. Supernatants were collected every 24 h and assayed for viral release by measuring RT activity. […] For comparison purposes, all compounds evaluated in these studies were also tested against HIV-1LAI in primary human lymphocytes.
(§2) Each well was carefully monitored for signs of cellular toxicity due to the inhibitors by microscopic observation every 24 h. In addition, cell viability was measured using the CellTiter 96 AQueous One Solution cell proliferation assay according to the manufacturer (Promega, Madison, Wis). Viral release from the cells was assayed by measuring RT activity in the supernatant. For this, supernatant from each well was collected every 24 h and frozen at −20°C until it was analyzed by RT assay for viral release as described previously. In brief, oligo(dT)·poly(rA) primer-template assays were performed in the presence of radiolabeled [α-^32P]dTTP and Mn^2+. After incubating the viral supernatants with the RT reaction mix for 1 h at 37°C, samples were spotted onto DE81 DEAE cellulose paper (Whatman) and unincorporated label washed away with 2× SSC (1× SSC = 0.15 M NaCl and 0.015 M sodium citrate). […] Inhibition of viral release as measured on day 6 after inoculation was averaged over 3–5 experiments and plotted. The antiviral EC50 and cytotoxic concentrations (CC50,) was determined from the concentration–response curve using the median effect method. HIV-1 replication assays were performed as described previously using peripheral blood mononuclear cells (PBMC) obtained from the American Red Cross, Atlanta, GA, that were stimulated with phytohemagglutinin (PHA) for 72 hr.

The subject of series [1] is XMRV. As to the kind of experiment: XMRV replication in LNCaP cells (viral release by RT activity in supernatant). The class given is cell-based. The note with it: for EC50: read-out: EC50 in LNCaP cells; for EC90: read-out: EC90 in LNCaP cells; for inhibition at 100 µM: read-out: inhibition of XMRV replication. The protocol: as §1
Viral release from XMRV-infected LNCaP cells in the presence of increasing concentrations of (A) ZDV (B) TDF (C) RAL and (D) L-000870812, was determined by measuring RT activity in the supernatants. […] Cell viability was checked by microscopy, quantified by the MTT assay, and represented by shaded bars. Data for each compound were derived from an average of at least three independent experiments, each performed in duplicate.
293T cells (ATCC, CRL-11268) were transfected with pXMRV1, an infectious clone of XMRV [2]. Virus released in the supernatant was harvested and titrated by inoculating MCF-7 cells, a breast cancer cell line (ATCC, HTB-22) at 70% confluence, with a series of ten-fold dilutions of XMRV in serum-free medium, followed 36–48 hrs later by fixation of cells in paraformaldehyde and processing for immunofluorescence using a rabbit antiserum developed against inactivated XMRV [2]. […] Virus was diluted in serum-free medium and used to inoculate cells at a multiplicity of infection (MOI) of approximately 3, in the presence of various antiviral compounds as described below. LNCaP, a prostate cancer cell line (ATCC, CRL-1740) and MCF-7 cells were grown to about 50% confluence in DMEM containing 10% heat inactivated fetal bovine serum, […]. Cells were washed twice with Dulbecco's phosphate buffered saline (DPBS, Gibco), and incubated with the viral inoculum for 90 min at 37°C in the presence of 95% air and 5% CO2, cells were washed twice with DPBS, detached with Trypsin-EDTA (0.25% Trypsin; Cellgro), and counted. One thousand cells were added to each well of a 96-well plate, along with an equal volume of medium containing the retroviral inhibitor at 2-fold the desired concentration. […] For controls, wells containing water or DMSO at appropriate concentrations were used.
Each well was carefully monitored for signs of cellular toxicity due to the inhibitors by microscopic observation every 24 h. In addition, cell viability was measured using the CellTiter 96 AQueous One Solution cell proliferation assay according to the manufacturer (Promega, Madison, Wis). Viral release from the cells was assayed by measuring RT activity in the supernatant. For this, supernatant from each well was collected every 24 h and frozen at −20°C until it was analyzed by RT assay for viral release as described previously. In brief, oligo(dT)·poly(rA) primer-template assays were performed in the presence of radiolabeled [α-^32P]dTTP and Mn^2+. After incubating the viral supernatants with the RT reaction mix for 1 h at 37°C, samples were spotted onto DE81 DEAE cellulose paper (Whatman) and unincorporated label washed away with 2× SSC (1× SSC = 0.15 M NaCl and 0.015 M sodium citrate).

Series [2] is described as follows: Cytotoxicity in PBM cells. The class given is cell-based. Particulars: human, read-out: HIV-1 in PBM cells CC50. The protocol:
as §2

Another series deals with HIV-1LAI. Nature of the series: HIV-1 replication in PHA-stimulated peripheral blood mononuclear cells. The class given is cell-based. The note with it: Human immunodeficiency virus 1, PBMC; for EC50: read-out: HIV-1 in PBM cells EC50; for EC90: read-out: HIV-1 in PBM cells EC90. The protocol:
as §1, §2

The subject of series [3] is XMRV. As to the kind of experiment: XMRV replication in MCF-7 cells (viral release by RT activity in supernatant). The class given is cell-based. The note with it: for EC50 / EC90: MCF7, 144 h; for EC50: read-out: XMRV in MCF-7 cells EC50; for EC90: read-out: XMRV in MCF-7 cells EC90; for therapeutic index (TI, the ratio of CC50/EC50): XMRV, MCF-7 cells.
Series [4] is described as follows: Cytotoxicity in MCF-7 cells (MTT / CellTiter 96 AQueous One). The class given is cell-based, human. The note with it: human. The protocol:
as §1, §2

Setting [5] is: peripheral blood mononuclear (PBM) cells.
The mark [6] stands for this setting: XMRV-infected MCF-7 cells, RT activity in supernatant, day 6.
[7] abbreviates: MCF-7 cells, read-out: XMRV in MCF-7 cells CC50.

Take `Nc1nc2c(ncn2[C@H]2C=C[C@@H](CO)C2)c(=O)[nH]1` [(-)-carbovir (CBV), (-)-carbovir]: the CC50 with MCF-7 cells is greater than 100000 nM. Besides, the “inhibition of XMRV replication” value with XMRV [1] (100 µM, see Table S1 (cell line not given)) is given as “greater than 70%”.

Turning to `CC(C)OC(=O)OCOP(=O)(CO[C@H](C)Cn1cnc2c(N)ncnc21)OCOC(=O)OC(C)C` [Tenofovir disoproxil fumarate (TDF), Tenofovir disoproxil fumarate], the CC50 in series [2] (setting [5]) came out at 17800 nM; in series [4] it was 52200 nM. Besides, the 50% effective concentration (EC50) stood at 16 nM with HIV-1LAI, 240 nM with XMRV [3] and 900 nM in the series with XMRV [1] (LNCaP). Further, the concentration for an effect of 90% (EC90) was determined as 180 nM with HIV-1LAI, 15300 nM in the series on XMRV [3] and 4200 nM in the series with XMRV [1] (LNCaP). In addition, the “therapeutic index (TI, the ratio of CC50/EC50)” value with XMRV [3] is reported as 218.

Take `Cc1cn([C@H]2C[C@H](F)[C@@H](CO)O2)c(=O)[nH]c1=O` [3'-Fluoro-3'-deoxythymidine (FLT), 3'-Fluoro-3'-deoxythymidine]: the CC50 in series [2] (setting [5]) is 13800 nM; in series [4] it was 75800 nM. The values for the EC50 with HIV-1LAI and in the series on XMRV [3] were 0.18 nM and 7900 nM, respectively. Moreover, the values for the EC90 with HIV-1LAI and in the series with XMRV [3] were 5 nM and greater than 100000 nM, respectively. In the series on XMRV [1] (LNCaP), the inhibition at 100 µM is greater than 70%.

Consider `Nc1ccn([C@H]2C=C[C@@H](CO)O2)c(=O)n1` [D4C], for which the CC50 in the series on MCF-7 cells is greater than 100000 nM.

In the case of `Cc1nnc(C(=O)NC(C)(C)c2nc(C(=O)NCc3ccc(F)cc3)c(O)c(=O)n2C)o1` [Raltegravir (RAL, MK-0518), Raltegravir], the values for the CC50 in series [2] and in series [4] (setting [7]) were greater than 100000 nM and 92300 nM, respectively. Moreover, the EC50 in the series on HIV-1LAI was found to be 1.4 nM; in the series with XMRV [3] (setting [6]), 5 nM; in the series on XMRV [1] (XMRV-infected LNCaP cells), 30 nM. The results for the EC90 in the series on HIV-1LAI, with XMRV [3] (setting [6]) and in the series on XMRV [1] (XMRV-infected LNCaP cells) were 8.9 nM, 3500 nM and 460 nM, respectively. Further, in the series with XMRV [3], the “therapeutic index (TI, the ratio of CC50/EC50)” value is on record as 18,460.

Regarding `Cc1cn([C@H]2C[C@H](N=[N+]=[N-])[C@@H](CO)O2)c(=O)[nH]c1=O` [3'-Azido-3'-deoxythymidine (ZDV), 3'-Azido-3'-deoxythymidine], the CC50 in series [2] (setting [5]) was greater than 100000 nM; in series [4] it was 65000 nM. Also, the EC50 is 5.2 nM with HIV-1LAI, 110 nM in the series on XMRV [3] and 140 nM in the series with XMRV [1] (LNCaP). For the same molecule, the values for the EC90 in the series with HIV-1LAI, in the series with XMRV [3] and in the series on XMRV [1] (LNCaP) were 36 nM, 7300 nM and 1100 nM, respectively. For the same molecule, the “therapeutic index (TI, the ratio of CC50/EC50)” value in the series with XMRV [3] is 591.

On to `Cc1cn([C@H]2C=C[C@@H](CO)O2)c(=O)[nH]c1=O` [Stavudine (D4T), Stavudine], for which the CC50 in series [2] (setting [5]) and in series [4] (setting [7]) was greater than 100000 nM in each case. For the same molecule, the EC50 with HIV-1LAI came out at 90 nM; with XMRV [3], 75600 nM. The EC90 in the series with HIV-1LAI was 490 nM; in the series with XMRV [3], greater than 100000 nM. Moreover, the inhibition at 100 µM in the series with XMRV [1] (LNCaP) is greater than 70%.

On to `Nc1nc2c(ncn2C2COC(CO)O2)c(=O)[nH]1` [9-(β-D-1,3-Dioxolan-4-yl)guanine (DXG), 9-(β-D-1,3-Dioxolan-4-yl)guanine], for which the “activity against XMRV (in words)” value with XMRV [3] (tested up to 100 µM, Figure 1) is “essentially inactive”. The molecule also yielded a CC50 in the series with MCF-7 cells greater than 100000 nM.
